Assay [1] deals with human vasopressin V1a receptor (Homo sapiens (Human), UniProt P37288). Nature of the assay: Vasopressin V1a receptor binding assay. Particulars: selectivity quotient, human V1a vs human V1b receptor. How it is done:
The test substances were dissolved in a concentration of 5 mM M in DMSO. Further dilution of these DMSO solutions took place as described for V1b.
The membrane pellet was again homogenized in a High-Pressure-Homogenizer, Polytec 50K at 1500 PSI (Heinemann, Germany) and subsequently taken up in 50 mM Tris-HCl, pH 7.4, homogenized and stored in aliquots frozen in liquid nitrogen at −190° C.
(§1) The incubation buffer was: 50 mM Tris, 10 mM MgCl2, 0.1% BSA, pH 7.4.
Duplicate determinations were carried out.
After incubation (60 minutes at room temperature), the samples were processed as described for V1b.
(§2) The binding parameters were calculated by nonlinear regression in SAS.

In assay [2] the target is human vasopressin V1b receptor (Homo sapiens (Human), UniProt P47901). Description: Vasopressin V1b receptor binding assay. The settings on record: membranes from CHO-K1 cells, displacement of 3H-AVP. How it is done: The test substances were dissolved in a concentration of 5 mM in 100% DMSO and further diluted to 5×10^−4 M to 5×10^−9 M. These serial DMSO predilutions were diluted 1:10 with assay buffer. The substance concentration was further diluted 1:5 in the assay mixture resulting in 2% DMSO in the mixture. All dilutions were performed in a Biomek NX automation workstation (Beckman)
The membrane pellet was again homogenized and centrifuged as described and subsequently taken up in 50 mM Tris-HCl, pH 7.4, homogenized and stored in aliquots frozen in liquid nitrogen at −190° C.
as §1
All determinations were carried out as duplicate determinations. […] The liquid scintillation measurement took place in a Microbeta TriLux 12 (Wallac). Analysis:
as §2
Background: Loss of bound radioactivity is the signal in a displacement assay; it reports binding, not function.

Sequence of human vasopressin V1b receptor (P47901 whole entry): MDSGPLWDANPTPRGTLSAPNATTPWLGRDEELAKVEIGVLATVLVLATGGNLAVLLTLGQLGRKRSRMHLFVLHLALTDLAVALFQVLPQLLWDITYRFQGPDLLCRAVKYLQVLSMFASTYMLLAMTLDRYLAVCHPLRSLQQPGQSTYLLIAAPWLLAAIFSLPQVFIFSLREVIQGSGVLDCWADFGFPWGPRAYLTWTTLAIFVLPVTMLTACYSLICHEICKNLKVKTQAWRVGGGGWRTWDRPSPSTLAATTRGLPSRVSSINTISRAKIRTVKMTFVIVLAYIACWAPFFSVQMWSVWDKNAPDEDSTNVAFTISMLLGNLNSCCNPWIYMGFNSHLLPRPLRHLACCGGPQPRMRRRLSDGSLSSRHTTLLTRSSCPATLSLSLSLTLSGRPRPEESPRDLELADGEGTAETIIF
Sequence of human vasopressin V1a receptor (P37288 whole entry): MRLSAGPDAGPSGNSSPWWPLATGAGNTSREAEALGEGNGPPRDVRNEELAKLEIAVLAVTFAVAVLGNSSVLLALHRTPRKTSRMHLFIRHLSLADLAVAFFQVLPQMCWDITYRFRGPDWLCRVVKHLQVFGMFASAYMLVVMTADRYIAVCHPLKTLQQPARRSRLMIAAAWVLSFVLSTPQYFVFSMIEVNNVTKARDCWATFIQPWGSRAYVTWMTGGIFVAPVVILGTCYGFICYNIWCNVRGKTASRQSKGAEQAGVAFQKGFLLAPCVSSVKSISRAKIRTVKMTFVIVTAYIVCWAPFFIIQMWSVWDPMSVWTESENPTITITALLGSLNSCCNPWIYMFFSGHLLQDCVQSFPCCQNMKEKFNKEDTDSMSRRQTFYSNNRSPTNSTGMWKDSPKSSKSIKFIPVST

As a reminder, the Ki is a measure of affinity in units of concentration, obtained from inhibition or displacement. Lower therefore signals tighter binding. On to `CCOc1ccc(OC)cc1C1(N2CC3(CN(C4CCN(C)CC4)C3)C2)C(=O)N(S(=O)(=O)c2ccc(OC)cn2)c2ccc(C#N)cc21` (racemic) [Example 1, (±)-3-(2-ethoxy-5-methoxy-phenyl)-1-[(5-methoxy-2-pyridyl)sulfonyl]-3-[2-(1-methyl-4-piperidyl)-2,6-diazaspiro[3.3]heptan-6-yl]-2-oxo-indoline-5-carbonitrile], for which the “Ki(h-V1a)/ Ki(h-V1b)” value in assay [1] is “+++ (>75)”. Further, the Ki in assay [2] was in the range of 0.001 to 0.01 µM.

For `CCOc1ccc(OC)cc1C1(N2CC3(CN(C4CCN(C)CC4)C3)C2)C(=O)N(S(=O)(=O)c2ccc(OC)cc2OC)c2ccc(C#N)cc21` (racemic) [Example 2, (±)-1-(2,4-dimethoxyphenyl)sulfonyl-3-(2-ethoxy-5-methoxy-phenyl)-3-[2-(1-methyl-4-piperidyl)-2,6-diazaspiro[3.3]heptan-6-yl]-2-oxo-indoline-5-carbonitrile], the “Ki(h-V1a)/ Ki(h-V1b)” value in assay [1] is on record as “++ (25-75)”. Further, the Ki in assay [2] lay in the range of 0.01 to 0.1 µM. With `CCOc1ccc(OC)cc1C1(N2CC3(CN(C4CCN(C)CC4)C3)C2)C(=O)N(S(=O)(=O)c2cccc3cccnc23)c2ccc(C#N)cc21` (racemic) [Example 3, (±)-3-(2-ethoxy-5-methoxy-phenyl)-3-[2-(1-methyl-4-piperidyl)-2,6-diazaspiro[3.3]heptan-6-yl]-2-oxo-1-(8-quinolylsulfonyl)indoline-5-carbonitrile], the “Ki(h-V1a)/ Ki(h-V1b)” value in assay [1] is “+++ (>75)”. Moreover, the Ki in assay [2] lay within 0.01 to 0.1 µM.

In the case of `CCOc1ccc(OC)cc1C1(N2CC3(CN(C4CCN(C)CC4)C3)C2)C(=O)N(S(=O)(=O)c2ccc(OC)cc2)c2ccc(C#N)cc21` (racemic) [Example 5, (±)-3-(2-ethoxy-5-methoxy-phenyl)-1-(4-methoxyphenyl)sulfonyl-3-[2-(1-methyl-4-piperidyl)-2,6-diazaspiro[3.3]heptan-6-yl]-2-oxo-indoline-5-carbonitrile], the “Ki(h-V1a)/ Ki(h-V1b)” value in assay [1] was “+ (10-<25)”. This compound displayed an inhibition constant (Ki) in assay [2] of 0.001 to 0.01 µM.

As for `CCOc1cc(F)ccc1C1(N2CC3(CN(C4CCN(C)CC4)C3)C2)C(=O)N(S(=O)(=O)c2ccc(OC)cn2)c2ccc(C#N)cc21` (racemic) [Example 7, (±)-3-(2-ethoxy-4-fluoro-phenyl)-1-[(5-methoxy-2-pyridyl)sulfonyl]-3-[2-(1-methyl-4-piperidyl)-2,6-diazaspiro[3.3]heptan-6-yl]-2-oxo-indoline-5-carbonitrile], the “Ki(h-V1a)/ Ki(h-V1b)” value in assay [1] is “+++ (>75)”. The same compound displayed a Ki in assay [2] of 0.001 to 0.01 µM. Regarding `CCOc1ccccc1C1(N2CC3(CN(C4CCN(C)CC4)C3)C2)C(=O)N(S(=O)(=O)c2ccc(OC)cn2)c2ccc(C#N)cc21` (racemic) [Example 8, (±)-3-(2-ethoxyphenyl)-1-[(5-methoxy-2-pyridyl)sulfonyl]-3-[2-(1-methyl-4-piperidyl)-2,6-diazaspiro[3.3]heptan-6-yl]-2-oxo-indoline-5-carbonitrile], in assay [1], the “Ki(h-V1a)/ Ki(h-V1b)” value is on record as “+++ (>75)”. In addition, in assay [2], the inhibition constant (Ki) is 0.001 to 0.01 µM. Taken in the same sequence, the figures for `CCOc1ncccc1C1(N2CC3(CN(C4CCN(C)CC4)C3)C2)C(=O)N(S(=O)(=O)c2ccc(OC)cn2)c2ccc(C#N)cc21` (racemic) [Example 9, (±)-3-(2-ethoxy-3-pyridyl)-1-[(5-methoxy-2-pyridyl)sulfonyl]-3-[2-(1-methyl-4-piperidyl)-2,6-diazaspiro[3.3]heptan-6-yl]-2-oxo-indoline-5-carbonitrile] were “+++ (>75)” and 0.001 to 0.01 µM. For `CCOc1ccc(OC)cc1C1(N2CC3(CN(C4CCN(C5COC5)CC4)C3)C2)C(=O)N(S(=O)(=O)c2ccc(OC)cn2)c2ccc(C#N)cc21` (racemic) [Example 10, (±)-3-(2-ethoxy-5-methoxy-phenyl)-1-[(5-methoxy-2-pyridyl)sulfonyl]-3-[2-[1-(oxetan-3-yl)-4-piperidyl]-2,6-diazaspiro[3.3]heptan-6-yl]-2-oxo-indoline-5-carbonitrile], the “Ki(h-V1a)/ Ki(h-V1b)” value in assay [1] is recorded as “+++ (>75)”. Also, in assay [2], the Ki lay in the range of 0.001 to 0.01 µM. Consider `CCOc1ncccc1C1(N2CC3(CN(C4CCN(C)CC4)C3)C2)C(=O)N(S(=O)(=O)c2ccc(OC)cc2)c2ccc(C#N)cc21` (racemic) [Example 12, (±)-3-(2-ethoxy-3-pyridyl)-1-(4-methoxyphenyl)sulfonyl-3-[2-(1-methyl-4-piperidyl)-2,6-diazaspiro[3.3]heptan-6-yl]-2-oxo-indoline-5-carbonitrile], for which, in assay [2], the inhibition constant Ki was in the range of 0.01 to 0.1 µM. As for `CCOc1ccc(OC)cc1C1(N2CC3(CN(C4CCN(C)CC4)C3)C2)C(=O)N(S(=O)(=O)c2ccc(C#N)cc2)c2ccc(C#N)cc21` (racemic) [Example 14, (±)-1-(4-cyanophenyl)sulfonyl-3-(2-ethoxy-5-methoxy-phenyl)-3-[2-(1-methyl-4-piperidyl)-2,6-diazaspiro[3.3]heptan-6-yl]-2-oxo-indoline-5-carbonitrile], the “Ki(h-V1a)/ Ki(h-V1b)” value in assay [1] was “+++ (>75)”. The compound also gave an inhibition constant Ki in assay [2] of 0.01 to 0.1 µM. On the same counts, the results for `CCOc1ccc(OC)cc1C1(N2CC3(CN(C4CCN(C)CC4)C3)C2)C(=O)N(S(=O)(=O)c2ccc(C)cc2)c2ccc(C#N)cc21` (racemic) [Example 15, (±)-3-(2-ethoxy-5-methoxy-phenyl)-3-[2-(1-methyl-4-piperidyl)-2,6-diazaspiro[3.3]heptan-6-yl]-2-oxo-1-(p-tolylsulfonyl)indoline-5-carbonitrile] are “++ (25-75)” and 0.01 to 0.1 µM. Consider `CCOc1ccc(OC)cc1C1(N2CC3(CN(C4CCN(C)CC4)C3)C2)C(=O)N(S(=O)(=O)c2ccc(F)cc2)c2ccc(C#N)cc21` (racemic) [Example 16, (±)-3-(2-ethoxy-5-methoxy-phenyl)-1-(4-fluorophenyl)sulfonyl-3-[2-(1-methyl-4-piperidyl)-2,6-diazaspiro[3.3]heptan-6-yl]-2-oxo-indoline-5-carbonitrile], for which the “Ki(h-V1a)/ Ki(h-V1b)” value in assay [1] is on record as “++ (25-75)”. This compound also returned a Ki in assay [2] of 0.01 to 0.1 µM. For the compound `CCOc1ccc(OC)cc1C1(N2CC3(CC(N4CCN(C)CC4)C3)C2)C(=O)N(S(=O)(=O)c2ccc(OC)cn2)c2ccc(C#N)cc21` (racemic) [Example 17, (±)-3-(2-ethoxy-5-methoxy-phenyl)-1-[(5-methoxy-2-pyridyl)sulfonyl]-3-[2-(4-methylpiperazin-1-yl)-6-azaspiro[3.3]heptan-6-yl]-2-oxo-indoline-5-carbonitrile], the “Ki(h-V1a)/ Ki(h-V1b)” value in assay [1] is “+++ (>75)”. In addition, the inhibition constant (Ki) in assay [2] is less than 0.001 µM.

In the case of `COc1ccc(S(=O)(=O)N2C(=O)C(c3ccccc3OC)(N3CC4(CN(C5CCN(C)CC5)C4)C3)c3cc(C#N)ccc32)nc1` (racemic) [Example 18, (±)3-(2-methoxyphenyl)-1-[(5-methoxy-2-pyridyl)sulfonyl]-3-[2-(1-methyl-4-piperidyl)-2,6-diazaspiro[3.3]heptan-6-yl]-2-oxo-indoline-5-carbonitrile], the “Ki(h-V1a)/ Ki(h-V1b)” value in assay [1] is “+++ (>75)”. This compound also showed an inhibitory constant (Ki) in assay [2] of less than 0.001 µM. In the case of `CCOc1ccc(OC)cc1C1(N2CC3(CN(C4CCN(C(C)C)CC4)C3)C2)C(=O)N(S(=O)(=O)c2ccc(OC)cn2)c2ccc(C#N)cc21` (racemic) [Example 19, (±)-3-(2-ethoxy-5-methoxy-phenyl)-3-[2-(1-isopropyl-4-piperidyl)-2,6-diazaspiro[3.3]heptan-6-yl]-1-[(5-methoxy-2-pyridyl)sulfonyl]-2-oxo-indoline-5-carbonitrile], the “Ki(h-V1a)/ Ki(h-V1b)” value in assay [1] is listed as “+++ (>75)”. Further, the Ki in assay [2] was less than 0.001 µM. As for `CCOc1ccc(OC)cc1C1(N2CC3(CN(C4CCN(CCOC)CC4)C3)C2)C(=O)N(S(=O)(=O)c2ccc(OC)cn2)c2ccc(C#N)cc21` (racemic) [Example 20, (±)-3-(2-ethoxy-5-methoxy-phenyl)-3-[2-[1-(2-methoxyethyl)-4-piperidyl]-2,6-diazaspiro[3.3]heptan-6-yl]-1-[(5-methoxy-2-pyridyl)sulfonyl]-2-oxo-indoline-5-carbonitrile], the “Ki(h-V1a)/ Ki(h-V1b)” value in assay [1] is recorded as “+++ (>75)”. For the same compound, the Ki in assay [2] was in the range of 0.001 to 0.01 µM. In turn, `CCOc1ccc(OC)cc1C1(N2CC3(CN(C4CCN(C)CC4)C3)C2)C(=O)N(S(=O)(=O)c2ccc(OC)cn2)c2cc(C#N)ccc21` (racemic) [Example 29, (±)-3-(2-ethoxy-5-methoxy-phenyl)-1-[(5-methoxy-2-pyridyl)sulfonyl]-3-[2-(1-methyl-4-piperidyl)-2,6-diazaspiro[3.3]heptan-6-yl]-2-oxo-indoline-6-carbonitrile] showed an inhibitory constant (Ki) in assay [2] of 0.001 to 0.01 µM. `CCOc1ccc(OC)cc1C1(N2CC3(CN(C4CCN(C)CC4)C3)C2)C(=O)N(S(=O)(=O)c2ccc(OC)cc2)c2ccc(C#N)cc21` (single isomer, unassigned; (-)) [Example 6, (−)-3-(2-ethoxy-5-methoxy-phenyl)-1-(4-methoxyphenyl)sulfonyl-3-[2-(1-methyl-4-piperidyl)-2,6-diazaspiro[3.3]heptan-6-yl]-2-oxo-indoline-5-carbonitrile] showed a Ki in assay [2] of 0.01 to 0.1 µM. The compound `CCOc1ccc(OC)cc1[C@]1(N2CC3(CN(C4CCN(C)CC4)C3)C2)C(=O)N(S(=O)(=O)c2cccc(OC)n2)c2ccc(C#N)cc21` [Example 32, (3S)-3-(2-ethoxy-5-methoxy-phenyl)-1-[(6-methoxy-2-pyridyl)sulfonyl]-3-[2-(1-methyl-4-piperidyl)-2,6-diazaspiro[3.3]heptan-6-yl]-2-oxo-indoline-5-carbonitrile] showed a Ki in assay [2] of 0.01 to 0.1 µM.

Source of the values: patent US9688678B2, “Oxindole compounds carrying a nitrogen-bound spiro substituent and use thereof for treating vasopressin-related diseases” (AbbVie Deutschland GmbH & Co. KG, priority 2014, dated 2017).
